This note sets out measurements from PubChem BioAssay (NCI).

Among the test systems are CAKI-1 renal; HS 578T breast; DU-145 prostate; SNB-19 CNS; T-47D breast; MDA-MB-231 breast; 786-0 renal; MCF7 breast; A498 renal; PC-3 prostate; HL-60(TB) leukemia; SNB-75 CNS; SK-OV-3 ovarian; BT-549 breast; NCI-H226 lung; HOP-92 NSCLC; RPMI-8226 leukemia; OVCAR-3 ovarian; RXF 393 renal.
What all share (assay): growth of human tumour cells (NCI), 48 h

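Each compound was tested at five concentrations against cells in 96-well plates for 48 hours. At the TGI there is no net growth.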

As to `COc1ccc(CC2c3cc(OC)c(OC)c(OC)c3CC[N+]2(C)C)cc1Oc1ccc(CC2c3cc4c(c(OC)c3CC[N+]2(C)C)OCO4)cc1` (stereo not given), the TGI in the assay on CAKI-1 renal, in the assay on HS 578T breast, with DU-145 prostate, with SNB-19 CNS, in the assay with T-47D breast and in the assay with MDA-MB-231 breast was above 100 µM throughout. Also, the TGI with 786-0 renal, with MCF7 breast, in the assay with A498 renal, in the assay on PC-3 prostate, in the assay on HL-60(TB) leukemia and in the assay with SNB-75 CNS was above 100 µM in each case. The TGI with SK-OV-3 ovarian, with BT-549 breast, in the assay with NCI-H226 lung and in the assay with HOP-92 NSCLC was above 100 µM each time.
For the compound `[O-]c1c[n+](CCCC[n+]2cc([O-])on2)no1`, the TGI in the assay on CAKI-1 renal, in the assay with HS 578T breast, with DU-145 prostate, in the assay on SNB-19 CNS, in the assay on T-47D breast and in the assay on MDA-MB-231 breast was above 100 µM in each case. Also, the TGI in the assay with 786-0 renal, in the assay with MCF7 breast, with A498 renal, with PC-3 prostate, in the assay on RPMI-8226 leukemia and in the assay on HL-60(TB) leukemia was above 100 µM throughout. For the same compound, the TGI in the assay with SNB-75 CNS, in the assay with SK-OV-3 ovarian, in the assay on OVCAR-3 ovarian, in the assay with BT-549 breast, in the assay with RXF 393 renal and in the assay on HOP-92 NSCLC was above 100 µM each time.
Take `Cc1nc2c(O)cc3c4c(=O)n(C)c(=O)n(C)c4n(Cc4ccccc4)c3c2nc1C`: the TGI was 80.1 µM in the assay on HS 578T breast; above 100 µM with DU-145 prostate; 34.4 µM with SNB-19 CNS; 38.2 µM with MDA-MB-231 breast; 32.8 µM with 786-0 renal; 32.2 µM with MCF7 breast. In addition, the TGI amounted to 81.7 µM in the assay on A498 renal; 31.2 µM in the assay with PC-3 prostate; 51.8 µM in the assay with RPMI-8226 leukemia; 53.8 µM in the assay with HL-60(TB) leukemia; 32.2 µM with SK-OV-3 ovarian; 26.7 µM in the assay with RXF 393 renal. Besides, the TGI was found to be 55.3 µM in the assay on NCI-H226 lung and 27.2 µM in the assay with HOP-92 NSCLC.
As for `O=Nc1c(-c2c(O)[nH]c3ccccc23)[nH]c2ccccc12`, the TGI with CAKI-1 renal was 41 µM; in the assay with HS 578T breast, above 29.1 µM; in the assay with DU-145 prostate, 31 µM; in the assay with SNB-19 CNS, above 100 µM; in the assay with T-47D breast, above 48.7 µM; in the assay on MDA-MB-231 breast it was 21.2 µM. Moreover, the TGI in the assay on 786-0 renal was above 49.9 µM; in the assay on MCF7 breast it was above 23.9 µM; in the assay with A498 renal it was 13.9 µM; in the assay on PC-3 prostate it was 28.1 µM; in the assay on RPMI-8226 leukemia it was 9.95 µM; in the assay with HL-60(TB) leukemia, 12.3 µM. Besides, the TGI was 16.5 µM in the assay on SNB-75 CNS; 21.2 µM in the assay with SK-OV-3 ovarian; above 89.7 µM with OVCAR-3 ovarian; 30 µM in the assay with BT-549 breast; 13.2 µM in the assay on RXF 393 renal; above 29.6 µM with HOP-92 NSCLC.
As for `Cc1ccccc1[P+](C)(c1ccccc1C)c1ccccc1C`, the TGI in the assay with HS 578T breast was 55 µM; in the assay with DU-145 prostate, above 100 µM; in the assay with SNB-19 CNS, 37.4 µM; with T-47D breast, 12.9 µM; with MDA-MB-231 breast, 35.2 µM; with 786-0 renal, 93.7 µM. For the same compound, the TGI is above 100 µM with MCF7 breast; 49.9 µM in the assay with A498 renal; 55.2 µM in the assay on PC-3 prostate; 3.96 µM in the assay with RPMI-8226 leukemia; 40.8 µM in the assay with SNB-75 CNS; above 100 µM in the assay on SK-OV-3 ovarian. For the same compound, the TGI in the assay on OVCAR-3 ovarian was 23.6 µM; in the assay on BT-549 breast, 63.1 µM; in the assay with RXF 393 renal it was above 100 µM; with NCI-H226 lung, 35.7 µM; with HOP-92 NSCLC it was 58 µM.
Consider `NC(=O)c1ccc(NS(=O)(=O)c2ccc(N)cc2)nc1`, for which the TGI in the assay on CAKI-1 renal, in the assay with HS 578T breast, in the assay with DU-145 prostate, in the assay on SNB-19 CNS, with T-47D breast and in the assay with MDA-MB-231 breast was above 100 µM in each case. Further, the TGI in the assay on 786-0 renal, in the assay on MCF7 breast, in the assay with A498 renal, in the assay on PC-3 prostate, with RPMI-8226 leukemia and in the assay with HL-60(TB) leukemia was above 100 µM throughout. Besides, the TGI in the assay on SNB-75 CNS, in the assay with SK-OV-3 ovarian, in the assay on OVCAR-3 ovarian, in the assay on BT-549 breast, with NCI-H226 lung and in the assay with HOP-92 NSCLC was above 100 µM in each case.
`CN(C)CCCNC(=O)c1cc(NC(=O)c2cc(NS(=O)(=O)c3ccc4c(c3)C(=O)c3ccccc3C4=O)cn2C)cn1C`: the TGI in the assay with CAKI-1 renal, with DU-145 prostate, with SNB-19 CNS, in the assay on T-47D breast, in the assay with MDA-MB-231 breast and in the assay with 786-0 renal was above 100 µM throughout. Moreover, the TGI with MCF7 breast, in the assay on A498 renal, in the assay with PC-3 prostate, in the assay on RPMI-8226 leukemia, with HL-60(TB) leukemia and with SNB-75 CNS was above 100 µM throughout. Besides, the TGI in the assay on SK-OV-3 ovarian, with OVCAR-3 ovarian, in the assay on BT-549 breast, in the assay on RXF 393 renal, in the assay with NCI-H226 lung and with HOP-92 NSCLC was above 100 µM in each case.
For the compound `c1ccc(CSC2(SCc3ccccc3)CCCC2)cc1`, the TGI with CAKI-1 renal, with HS 578T breast, in the assay on DU-145 prostate, in the assay on SNB-19 CNS, with T-47D breast and in the assay with MDA-MB-231 breast was above 10 µM throughout. The TGI with MCF7 breast, with A498 renal, in the assay on PC-3 prostate, with RPMI-8226 leukemia, in the assay on HL-60(TB) leukemia and in the assay on SNB-75 CNS was above 10 µM each time. Also, the TGI in the assay on SK-OV-3 ovarian, in the assay with OVCAR-3 ovarian, in the assay on RXF 393 renal and in the assay with NCI-H226 lung was above 10 µM in each case.
